# Assay results: the supplement of paper PMC10307832
# What was measured:
# Experiment in all cases: relative viability (nuclei count vs DMSO), 5 days (fraction); higher = more cells survive
# [1] = tested on: NCI-H2405
# Procedure, shortened: (§1)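 Each reported value is a median over duplicate plates. It expresses relative viability: treated-well nuclei count divided by vehicle-well nuclei count. Lung cancer cell lines in 1536-well plates were dosed by pin tool a day after seeding, alone with one drug or with a fixed anchor-drug dose plus five library-drug doses (not always all listed) in √10 steps, and nuclei were counted after 5 days.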
# [2] = tested on: HCC-44
# Procedure, shortened: as §1
# [3] = tested on: NCI-H1944
# Procedure, shortened: as §1
# [4] = tested on: NCI-H650
# Procedure, shortened: as §1
# [5] = tested on: NCI-H2085
# Procedure, shortened: as §1
# [6] = tested on: SK-MES-1
# Procedure, shortened: as §1
# [7] = tested on: NCI-H1793
# Procedure, shortened: as §1
# [8] = tested on: NCI-H1395
# Procedure, shortened: as §1
# [9] = tested on: NCI-H520
# Procedure, shortened: as §1
# [10] = tested on: NCI-H2087
# Procedure, shortened: as §1
# [11] = tested on: LCLC-103H
# Procedure, shortened: as §1
# [12] = tested on: NCI-H2023
# Procedure, shortened: as §1
# [13] = tested on: COR-L23
# Procedure, shortened: as §1
# [14] = tested on: LU99A
# Procedure, shortened: as §1
# [15] = tested on: ChaGo-K-1
# Procedure, shortened: as §1
# [16] = tested on: EMC-BAC-2
# Procedure, shortened: as §1
# [17] = tested on: H3255
# Procedure, shortened: as §1
# [18] = tested on: HCC-827
# Procedure, shortened: as §1
# [19] = tested on: NCI-H838
# Procedure, shortened: as §1
# [20] = tested on: NCI-H1651
# Procedure, shortened: as §1
# [21] = tested on: EPLC-272H
# Procedure, shortened: as §1
smiles,measurement,setting,value
CC(=O)O[C@@]12CO[C@@H]1C[C@H](O)[C@@]1(C)C(=O)[C@H](O)C3=C(C)[C@@H](OC(=O)[C@H](O)[C@@H](NC(=O)OC(C)(C)C)c4ccccc4)C[C@@](O)([C@@H](OC(=O)c4ccccc4)[C@H]21)C3(C)C [Docetaxel] + CC(=O)Nc1cccc(-n2c(=O)n(C3CC3)c(=O)c3c(Nc4ccc(I)cc4F)n(C)c(=O)c(C)c32)c1 [Trametinib] (partner 0.02 µM),relative viability,[1]; first compound 0.0002 µM,0.597
same,relative viability,[1]; first compound 0.000632 µM,0.618
same,relative viability,[1]; first compound 0.002 µM,0.531
same,relative viability,[1]; first compound 0.006325 µM,0.456
same,relative viability,[1]; first compound 0.02 µM,0.266
same,relative viability,[2]; first compound 0.0002 µM,1.04
same,relative viability,[2]; first compound 0.000632 µM,1
same,relative viability,[2]; first compound 0.002 µM,1.07
same,relative viability,[2]; first compound 0.006325 µM,0.577
same,relative viability,[2]; first compound 0.02 µM,0.472
same,relative viability,[3]; first compound 0.0002 µM,0.387
same,relative viability,[3]; first compound 0.000632 µM,0.371
same,relative viability,[3]; first compound 0.002 µM,0.294
same,relative viability,[3]; first compound 0.006325 µM,0.241
same,relative viability,[3]; first compound 0.02 µM,0.118
same,relative viability,[4]; first compound 0.0002 µM,0.932
same,relative viability,[4]; first compound 0.000632 µM,0.644
same,relative viability,[4]; first compound 0.002 µM,0.318
same,relative viability,[4]; first compound 0.006325 µM,0.295
same,relative viability,[4]; first compound 0.02 µM,0.16
same,relative viability,[5]; first compound 0.0002 µM,0.503
same,relative viability,[5]; first compound 0.000632 µM,0.513
same,relative viability,[5]; first compound 0.002 µM,0.324
same,relative viability,[5]; first compound 0.006325 µM,0.329
same,relative viability,[5]; first compound 0.02 µM,0.199
same,relative viability,[6]; first compound 0.0002 µM,0.63
same,relative viability,[6]; first compound 0.000632 µM,0.758
same,relative viability,[6]; first compound 0.002 µM,0.436
same,relative viability,[6]; first compound 0.006325 µM,0.313
same,relative viability,[6]; first compound 0.02 µM,0.185
same,relative viability,[7]; first compound 0.0002 µM,0.378
same,relative viability,[7]; first compound 0.000632 µM,0.433
same,relative viability,[7]; first compound 0.002 µM,0.384
same,relative viability,[7]; first compound 0.006325 µM,0.316
same,relative viability,[7]; first compound 0.02 µM,0.272
same,relative viability,[8]; first compound 0.0002 µM,1.04
same,relative viability,[8]; first compound 0.000632 µM,1.06
same,relative viability,[8]; first compound 0.002 µM,0.907
same,relative viability,[8]; first compound 0.006325 µM,0.467
same,relative viability,[8]; first compound 0.02 µM,0.297
same,relative viability,[9]; first compound 0.0002 µM,0.565
same,relative viability,[9]; first compound 0.000632 µM,0.711
same,relative viability,[9]; first compound 0.002 µM,0.243
same,relative viability,[9]; first compound 0.006325 µM,0.206
same,relative viability,[9]; first compound 0.02 µM,0.119
same,relative viability,[10]; first compound 0.0002 µM,0.159
same,relative viability,[10]; first compound 0.000632 µM,0.208
same,relative viability,[10]; first compound 0.002 µM,0.181
same,relative viability,[10]; first compound 0.006325 µM,0.118
same,relative viability,[10]; first compound 0.02 µM,0.0893
same,relative viability,[11]; first compound 0.0002 µM,0.675
same,relative viability,[11]; first compound 0.000632 µM,0.697
same,relative viability,[11]; first compound 0.002 µM,0.727
same,relative viability,[11]; first compound 0.006325 µM,0.782
same,relative viability,[11]; first compound 0.02 µM,0.592
same,relative viability,[12]; first compound 0.0002 µM,0.498
same,relative viability,[12]; first compound 0.000632 µM,0.521
same,relative viability,[12]; first compound 0.002 µM,0.141
same,relative viability,[12]; first compound 0.006325 µM,0.127
same,relative viability,[12]; first compound 0.02 µM,0.0628
same,relative viability,[13]; first compound 0.0002 µM,0.528
same,relative viability,[13]; first compound 0.000632 µM,0.579
same,relative viability,[13]; first compound 0.002 µM,0.223
same,relative viability,[13]; first compound 0.006325 µM,0.155
same,relative viability,[13]; first compound 0.02 µM,0.0909
same,relative viability,[14]; first compound 0.0002 µM,0.53
same,relative viability,[14]; first compound 0.000632 µM,0.561
same,relative viability,[14]; first compound 0.002 µM,0.346
same,relative viability,[14]; first compound 0.006325 µM,0.3
same,relative viability,[15]; first compound 0.0002 µM,0.871
same,relative viability,[15]; first compound 0.000632 µM,0.815
same,relative viability,[15]; first compound 0.002 µM,0.443
same,relative viability,[15]; first compound 0.006325 µM,0.323
same,relative viability,[15]; first compound 0.02 µM,0.157
same,relative viability,[16]; first compound 0.0002 µM,0.874
same,relative viability,[16]; first compound 0.000632 µM,0.76
same,relative viability,[16]; first compound 0.002 µM,0.554
same,relative viability,[16]; first compound 0.006325 µM,0.476
same,relative viability,[16]; first compound 0.02 µM,0.385
same,relative viability,[17]; first compound 0.0002 µM,0.554
same,relative viability,[17]; first compound 0.000632 µM,0.635
same,relative viability,[17]; first compound 0.002 µM,0.52
same,relative viability,[17]; first compound 0.006325 µM,0.361
same,relative viability,[17]; first compound 0.02 µM,0.303
same,relative viability,[18]; first compound 0.0002 µM,0.545
same,relative viability,[18]; first compound 0.000632 µM,0.524
same,relative viability,[18]; first compound 0.002 µM,0.376
same,relative viability,[18]; first compound 0.006325 µM,0.272
same,relative viability,[18]; first compound 0.02 µM,0.189
same,relative viability,[19]; first compound 0.0002 µM,0.456
same,relative viability,[19]; first compound 0.000632 µM,0.638
same,relative viability,[19]; first compound 0.002 µM,0.183
same,relative viability,[19]; first compound 0.006325 µM,0.141
same,relative viability,[19]; first compound 0.02 µM,0.0997
same,relative viability,[20]; first compound 0.0002 µM,0.843
same,relative viability,[20]; first compound 0.000632 µM,0.83
same,relative viability,[20]; first compound 0.002 µM,0.586
same,relative viability,[20]; first compound 0.006325 µM,0.268
same,relative viability,[21]; first compound 0.0002 µM,0.32
same,relative viability,[21]; first compound 0.000632 µM,0.276
same,relative viability,[21]; first compound 0.006325 µM,0.136
same,relative viability,[21]; first compound 0.02 µM,0.0951
